Assay results reported in patent US5880092A, “Conformationally stabilized cell adhesion peptides” (La Jolla Cancer Research Foundation, priority 1995, dated 1999).
Where no end group is shown, it is not given here. [ ]: non-standard residue; d: D form. Pen = CC(C)(S)[C@H](N)C(=O)O

Key:
[1] = tested on: attachment of normal rat kidney cells to fibronectin; test: Cell adhesion assay: inhibition of attachment of normal rat kidney cells to fibronectin; format: cell-based; details: fibronectin from human plasma coated at 12 μg/ml, peptide 0 to 10.0 mM, FIG. 2
Description: (§1) Fibronectin and vitronectin were purified from human plasma according to the methods of Ruoslahti et al., (1982) Meth. Enz. 82:803; and Hayman et al., (1983) PNAS 80:4003, respectively, both of which are incorporated herein by reference. The adhesion of normal rat kidney cells to fibronectin and vitronectin was assayed as described in Ruoslahti et al., Meth. Enz. supra. Briefly, 0.1 ml solution of fibronectin or vitronectin at a concentration of 12 μg/ml in 0.1M PBS was placed in each well of 96-well plastic microtiter plates and left for 2 hours at room temperature. The unattached protein was removed by washing three times with PBS.
(§2) One day before the assay, a confluent culture of normal rat kidney cells was split 1:2 using standard tissue culture trypsin. The cells were washed three times with PBS, pH 7.2. […] Before the last centrifugation, a sample was taken and cell numbers and viability by trypan blue exclusion are determined. […]
(§3) The unattached cells were removed simply by removing the medium and washing the wells. […] The cells were then fixed with 3% paraformaldehyde in PBS and stained with 1% toluidine blue, paraformaldehyde in PBS, and attached cells counted. Their number was determined using a cell counter that is capable of counting cells attached to a surface (Dynatech Laboratories, Alexandria, Va.). […]

[2] = tested on: attachment of normal rat kidney cells to vitronectin; test: Cell adhesion assay: inhibition of attachment of normal rat kidney cells to vitronectin; format: cell-based; details: vitronectin from human plasma coated at 12 μg/ml, peptide 0 to 10.0 mM, FIG. 2
Description: as §1, §2, §3

## G[Pen]GRGDSPC (cysteine pairing not given here) [linear peptide]
[1]
  inhibition of attachment to fibronectin: inhibited attachment of cells to both substrates at relatively similar concentrations
[2]
  inhibition of attachment to vitronectin: inhibited attachment of cells to both substrates at relatively similar concentrations
